The results in this text go back to patent publication US10717716B2, “1,3,4-oxadiazole derivative compounds as histone deacetylase 6 inhibitor, and the pharmaceutical composition comprising the same” (Chong Kun Dang Pharmaceutical Corp., priority 2015, dated 2020).

The target in the test is T1, human recombinant HDAC6 (Homo sapiens, UniProt Q9UBN7).
T1 construct: purchased Calbiochem 382180
T1 sequence (Q9UBN7 1-1215): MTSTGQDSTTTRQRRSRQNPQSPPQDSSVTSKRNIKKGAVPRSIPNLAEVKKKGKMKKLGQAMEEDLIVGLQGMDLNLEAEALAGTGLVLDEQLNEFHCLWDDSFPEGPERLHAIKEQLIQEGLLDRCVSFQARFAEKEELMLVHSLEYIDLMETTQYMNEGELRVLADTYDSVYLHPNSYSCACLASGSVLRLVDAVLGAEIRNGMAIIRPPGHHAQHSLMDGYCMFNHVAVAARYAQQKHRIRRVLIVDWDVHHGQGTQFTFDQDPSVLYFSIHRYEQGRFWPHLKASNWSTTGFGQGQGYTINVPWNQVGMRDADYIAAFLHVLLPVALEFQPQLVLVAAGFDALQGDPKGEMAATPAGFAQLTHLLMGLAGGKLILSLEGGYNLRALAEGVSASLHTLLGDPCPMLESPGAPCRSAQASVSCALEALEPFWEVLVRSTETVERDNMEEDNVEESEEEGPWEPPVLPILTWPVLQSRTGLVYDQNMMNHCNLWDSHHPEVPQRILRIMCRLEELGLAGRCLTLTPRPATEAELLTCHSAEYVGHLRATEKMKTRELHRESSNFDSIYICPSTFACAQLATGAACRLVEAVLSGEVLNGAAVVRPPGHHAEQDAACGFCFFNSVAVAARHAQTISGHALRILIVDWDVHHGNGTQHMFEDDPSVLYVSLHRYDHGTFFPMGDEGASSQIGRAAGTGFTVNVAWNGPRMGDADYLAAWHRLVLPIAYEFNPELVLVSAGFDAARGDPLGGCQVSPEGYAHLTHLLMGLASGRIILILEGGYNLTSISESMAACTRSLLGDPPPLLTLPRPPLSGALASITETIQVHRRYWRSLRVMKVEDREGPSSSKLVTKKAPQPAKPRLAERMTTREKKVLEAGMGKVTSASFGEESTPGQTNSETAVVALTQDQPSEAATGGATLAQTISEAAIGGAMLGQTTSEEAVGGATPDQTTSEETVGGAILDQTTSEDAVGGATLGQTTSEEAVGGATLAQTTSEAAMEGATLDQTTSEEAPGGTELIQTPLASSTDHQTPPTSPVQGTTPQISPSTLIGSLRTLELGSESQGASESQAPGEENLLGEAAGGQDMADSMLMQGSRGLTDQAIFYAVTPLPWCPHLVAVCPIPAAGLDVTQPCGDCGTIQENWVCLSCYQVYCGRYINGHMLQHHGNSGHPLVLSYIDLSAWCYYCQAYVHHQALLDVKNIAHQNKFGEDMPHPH
Briefly: HDAC6 enzyme activity inhibition assay (HDAC Fluorimetric Drug Discovery Kit). It is filed as biochemical. Particulars: for HDAC6 selectivity (fold): HDAC6 over HDAC1; for IC50: human recombinant HDAC6, same protocol as HDAC1, read-out: HDAC6. The essentials:
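Fluorimetric deacetylase assay: 5-fold serial compound dilutions, 0.3 μg recombinant human enzyme (HDAC1 or HDAC6, same protocol), 10 μM Fluor de Lys-SIRT1 substrate, 60 min at 30 °C. Signal developed 30 min, measured at 360/460 nm; IC50 values derived.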

SMILES strings stand for the structures.

Regarding `CN1CCN(C(=O)N(Cc2ccc(-c3nnc(C(F)F)o3)cc2F)c2cccc(-c3ccc4c(cnn4C)c3)c2)CC1` [Compound 21537, N-(4-(5-(difluoromethyl)-1,3,4-oxadiazol-2-yl)-2-fluorobenzyl)-4-methyl-N-(3-(1-methyl-1H-indazol-5-yl)phenyl)piperazine-1-carboxamide], the “HDAC6 selectivity (fold)” value was 145 fold and the IC50 turned out to be 69 nM.

With `CN1CCN(C(=O)N(Cc2ccc(-c3nnc(C(F)F)o3)cc2F)c2ccc(-c3cccnc3)cc2)CC1` [Compound 21540, N-(4-(5-(difluoromethyl)-1,3,4-oxadiazol-2-yl)-2-fluorobenzyl)-4-methyl-N-(4-(pyridin-3-yl)phenyl)piperazine-1-carboxamide], the “HDAC6 selectivity (fold)” value is reported as 333 fold and the IC50 was 30 nM.

Regarding `CN1CCN(C(=O)N(Cc2ccc(-c3nnc(C(F)F)o3)cc2F)c2ccc(-c3ccncc3)cc2)CC1` [Compound 21541, N-(4-(5-(difluoromethyl)-1,3,4-oxadiazol-2-yl)-2-fluorobenzyl)-4-methyl-N-(4-(pyridin-4-yl)phenyl)piperazine-1-carboxamide], the “HDAC6 selectivity (fold)” value is 156 fold and the IC50 turned out to be 64 nM.

On to `CN1CCN(C(=O)N(Cc2ccc(-c3nnc(C(F)F)o3)cc2F)c2ccc(-c3ccccc3)cc2)CC1` [Compound 21542, N-([1,1′-biphenyl]-4-yl)-N-(4-(5-(difluoromethyl)-1,3,4-oxadiazol-2-yl)-2-fluorobenzyl)-4-methylpiperazine-1-carboxamide], for which the “HDAC6 selectivity (fold)” value turned out to be 164 fold and the IC50 came out at 61 nM.

Turning to `O=C(N1CCS(=O)(=O)CC1)N(Cc1ccc(-c2nnc(C(F)F)o2)cc1F)c1ccc2c(c1)CCO2` [Compound 21544, N-(4-(5-(difluoromethyl)-1,3,4-oxadiazol-2-yl)-2-fluorobenzyl)-N-(2,3-dihydrobenzofuran-5-yl)thiomorpholine-4-carboxamide 1,1-dioxide], the “HDAC6 selectivity (fold)” value worked out at 294 fold and the IC50 came out at 34 nM.

For `Cn1ncc2ccc(N(Cc3ccc(-c4nnc(C(F)F)o4)cc3F)C(=O)N3CCS(=O)(=O)CC3)cc21` [Compound 21546, N-(4-(5-(difluoromethyl)-1,3,4-oxadiazol-2-yl)-2-fluorobenzyl)-N-(1-methyl-1H-indazol-6-yl)thiomorpholine-4-carboxamide 1,1-dioxide], the “HDAC6 selectivity (fold)” value is on record as 476 fold and the IC50 amounted to 21 nM.

In the case of `CCN(CC)c1ccc(N(Cc2ccc(-c3nnc(C(F)(F)F)o3)cc2F)C(=O)N2CCS(=O)(=O)CC2)cc1` [Compound 21552, N-(4-(diethylamino)phenyl)-N-(2-fluoro-4-(5-(trifluoromethyl)-1,3,4-oxadiazol-2-yl)benzyl)thiomorpholine-4-carboxamide 1,1-dioxide], the “HDAC6 selectivity (fold)” value is 7 fold and the IC50 came out at 1520 nM.

`CCN(CC)c1ccc(N(Cc2ccc(-c3nnc(C(F)F)o3)cc2F)C(=O)N2CCS(=O)(=O)CC2)cc1` [Compound 21553]: the “HDAC6 selectivity (fold)” value is 14 fold and the IC50 was 697 nM.

Take `CN1CCN(C(=O)N(CCc2ccccc2)Cc2ccc(-c3nnc(C(F)F)o3)cc2F)CC1` [Compound 21554, N-(4-(5-(difluoromethyl)-1,3,4-oxadiazol-2-yl)-2-fluorobenzyl)-4-methyl-N-phenethylpiperazine-1-carboxamide]: the “HDAC6 selectivity (fold)” value was 65 fold and the IC50 turned out to be 155 nM.

`O=C(N1CCOCC1)N(CCc1ccccc1)Cc1ccc(-c2nnc(C(F)F)o2)cc1F` [Compound 21555, N-(4-(5-(difluoromethyl)-1,3,4-oxadiazol-2-yl)-2-fluorobenzyl)-N-phenethylmorpholine-4-carboxamide]: the “HDAC6 selectivity (fold)” value is on record as 26 fold and the IC50 was 386 nM.
